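Protocol summary: plate cells (96-well), add compound at 5 concentrations, incubate 48 h, interpolate endpoints linearly. GI50 marks 50% less growth. TGI: concentration producing complete growth inhibition.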

Test systems include HL-60(TB) leukemia; MOLT-4 leukemia; OVCAR-3 ovarian; DU-145 prostate; HCC-2998 colon; SNB-75 CNS; SR leukemia.
Common to all, as to test: DTP human tumour cell line panel, 48 h

As usually defined, the TGI is the concentration at which net growth stops. Consider `O=C1/C(=C/c2cccnc2)SC(=S)N1Cc1ccco1`, for which the TGI with HL-60(TB) leukemia is > 22 µM; with MOLT-4 leukemia, 14.3 µM; in the experiment on OVCAR-3 ovarian, 10.4 µM; in the experiment with DU-145 prostate, 9.22 µM.
The term GI50 denotes the concentration at which growth is held to half of that of the control. Turning to `CN1CCN(CCCOc2cccc3nc(Nc4cc(Cl)cc(Cl)c4)ccc23)CC1`, the GI50 is 1.68 µM in the experiment with OVCAR-3 ovarian, 1.69 µM in the experiment on DU-145 prostate and 1.64 µM in the experiment on HCC-2998 colon. In addition, the TGI in the experiment with OVCAR-3 ovarian is 3.18 µM; with DU-145 prostate it was 3.13 µM; with HCC-2998 colon, 3.17 µM.
As to `Nc1n[n+]([O-])c2cc([N+](=O)[O-])ccc2[n+]1[O-]`, the TGI stood at 7.47 µM with HL-60(TB) leukemia; 4.16 µM in the experiment on MOLT-4 leukemia; 15.2 µM with OVCAR-3 ovarian; 31.7 µM in the experiment on DU-145 prostate; 83.4 µM with SNB-75 CNS; 18.4 µM in the experiment with SR leukemia.
For `CCCCCC/C=C/C#CCCCCCCCC(=O)O`, the concentration for total growth inhibition (TGI) with HL-60(TB) leukemia, in the experiment on MOLT-4 leukemia, with OVCAR-3 ovarian, in the experiment on DU-145 prostate, in the experiment with HCC-2998 colon and with SNB-75 CNS was > 100 µM throughout.
In the case of `CNC(=O)c1cc(Oc2ccc3nc(NC(=O)Nc4ccc(CN5CCOCC5)c(C(F)(F)F)c4)sc3c2)ccn1`, the GI50 with HL-60(TB) leukemia is 2.7 µM; in the experiment on MOLT-4 leukemia, 2.57 µM; with OVCAR-3 ovarian, 1.79 µM; with DU-145 prostate, 2.73 µM; with HCC-2998 colon it was 3 µM; with SNB-75 CNS, 1.74 µM. Besides, the concentration for total growth inhibition (TGI) with HL-60(TB) leukemia is 7.41 µM; with MOLT-4 leukemia, > 100 µM; in the experiment with OVCAR-3 ovarian, 4.16 µM; in the experiment on DU-145 prostate, 9.4 µM; in the experiment with HCC-2998 colon, 7.11 µM; in the experiment with SNB-75 CNS it was 4.95 µM.
Consider `O=C1Cc2c(-c3ccccc3)cc(-c3ccccc3)nc2-c2ccccc2N1`, for which the TGI in the experiment with HL-60(TB) leukemia is > 100 µM; in the experiment on OVCAR-3 ovarian it was 21.4 µM; in the experiment on DU-145 prostate, 20.3 µM; in the experiment on HCC-2998 colon, 11.5 µM; in the experiment on SNB-75 CNS it was 7.71 µM.
In the case of `Cc1nc2ccccn2c1NC(=O)NN1C(=O)CSC1c1ccc(Cl)cc1` (centres undefined), the GI50 in the experiment on HL-60(TB) leukemia, in the experiment with MOLT-4 leukemia, with OVCAR-3 ovarian, in the experiment with DU-145 prostate, with HCC-2998 colon and with SNB-75 CNS was > 100 µM in each case. The TGI in the experiment with HL-60(TB) leukemia, in the experiment with MOLT-4 leukemia, with OVCAR-3 ovarian, with DU-145 prostate, in the experiment with HCC-2998 colon and with SNB-75 CNS was > 100 µM throughout.
Consider `CCOC(=O)C1(CC(=O)O)CCCC1=O` (centres undefined), for which the TGI with HL-60(TB) leukemia, in the experiment on MOLT-4 leukemia, with OVCAR-3 ovarian, with DU-145 prostate, in the experiment with SNB-75 CNS and in the experiment on SR leukemia was > 100 µM each time.
As for `Oc1ccc2ccccc2c1CCc1c(O)ccc2ccccc12`, the total growth inhibition concentration (TGI) turned out to be 40.9 µM with HL-60(TB) leukemia; 17.4 µM in the experiment with OVCAR-3 ovarian; 21.8 µM in the experiment on HCC-2998 colon; 18.3 µM in the experiment with SNB-75 CNS; 32.6 µM with SR leukemia.
`N#CCc1c(F)c(F)c(F)c(F)c1F`: the total growth inhibition concentration (TGI) with HL-60(TB) leukemia, in the experiment on MOLT-4 leukemia, in the experiment on DU-145 prostate, in the experiment with HCC-2998 colon and in the experiment with SR leukemia was > 100 µM each time.
As for `Cc1c2cnccc2c(C)c2c1c1cc(O)ccc1n2C(C)C`, the concentration for 50% growth inhibition (GI50) was 0.42 µM in the experiment on HL-60(TB) leukemia; 0.289 µM in the experiment with MOLT-4 leukemia; 2.04 µM in the experiment with OVCAR-3 ovarian; 0.688 µM in the experiment with DU-145 prostate; 1.55 µM with HCC-2998 colon; 1.2 µM with SNB-75 CNS. Also, the TGI with HL-60(TB) leukemia turned out to be 3.13 µM; in the experiment with MOLT-4 leukemia, 1.26 µM; in the experiment on OVCAR-3 ovarian, 6.86 µM; in the experiment on DU-145 prostate, 7.06 µM; with HCC-2998 colon, 4.94 µM; in the experiment with SNB-75 CNS, 2.46 µM.
As for `O=C(O)C1C2C=CC(O2)C1C(=O)NCc1cccnc1` (centres undefined), the TGI with HL-60(TB) leukemia, in the experiment with MOLT-4 leukemia, with OVCAR-3 ovarian, with DU-145 prostate, with SNB-75 CNS and in the experiment on SR leukemia was > 100 µM in each case.
Turning to `COc1ccc(C(=O)/C=C/c2sc(Cl)nc2Cl)cc1`, the GI50 was 1.95 µM in the experiment with HL-60(TB) leukemia; 0.369 µM in the experiment with MOLT-4 leukemia; 1.84 µM with OVCAR-3 ovarian; 1.9 µM in the experiment on DU-145 prostate; 1.72 µM with HCC-2998 colon; 2.56 µM in the experiment on SNB-75 CNS. Besides, the TGI was determined as 4.63 µM in the experiment on HL-60(TB) leukemia; 13.6 µM in the experiment with MOLT-4 leukemia; 3.48 µM in the experiment with OVCAR-3 ovarian; 3.55 µM with DU-145 prostate; 3.31 µM in the experiment with HCC-2998 colon; 8.29 µM with SNB-75 CNS.
For the compound `OCC#CCOCC#Cc1ccccc1C#CCOCC#CCO`, the GI50 is 47.4 µM in the experiment with HL-60(TB) leukemia; 44.8 µM in the experiment with MOLT-4 leukemia; 38.1 µM with OVCAR-3 ovarian; 48.4 µM in the experiment with DU-145 prostate; 29 µM in the experiment with HCC-2998 colon; 18.5 µM with SR leukemia. The TGI is > 100 µM in the experiment with HL-60(TB) leukemia; > 100 µM in the experiment on MOLT-4 leukemia; > 100 µM in the experiment with OVCAR-3 ovarian; > 100 µM with DU-145 prostate; 75.3 µM in the experiment with HCC-2998 colon; > 100 µM in the experiment on SR leukemia.

The record behind these values is PubChem BioAssay (NCI).
